Test results: patent US10441568B2, “Nitroxide radicals for the treatment of diseases of the respiratory tract” (priority 2015, dated 2019)

Experiments:
[1] = tested on: ovalbumin-induced murine model of asthma; assay: Lung resistance / airway hyper-responsiveness to methacholine in OVA asthma model; assay type: in vivo, BALB/c mice; details: oral
Experimental: (§1) All experimental procedures were carried out in accordance with the NIH Guidelines for the Care and Use of Laboratory Animals. Specific pathogen-free (SPF) male BALB/c mice (6-7 weeks of age, 18-22 grams), routinely screened serologically for relevant respiratory pathogens, were maintained in an animal housing facility for 1 week before use and given access to food and water ad libitum. Animals were randomly assigned to the indicated experimental groups, and sensitized with two intraperitoneal (IP) injections (20 μg ovalbumin (OVA) emulsified in 2 mg aluminum hydroxide (an adjuvant) in 200 μl phosphate buffer saline (PBS), pH 7.4), on days 1 and 10.
(§2) After another week, the animals were challenged by exposure to ovalbumin (OVA) aerosol (1%, w/v, in PBS) for 30 minutes each day on days 17, 18 and 19, in order to elicit an inflammatory reaction in the lungs characterized by airway hyper-responsiveness (AHR), an influx of inflammatory cells (particularly eosinophils), and increased pulmonary levels of various cytokines and transforming growth factors, protein nitration and lipid peroxidation.
(§3) The features of allergic inflammation typically reached their peak a day or two after the final exposure. Mice were then subjected to one of the following treatments: (i) sham-sensitization plus challenge with PBS; (ii) positive control-sensitization plus challenge with OVA; (iii) sensitization plus challenge with OVA and various indicated treatments (e.g., with nitroxide or dexamethasone), including different modes (oral, IP, intranasal, inhalation), time windows (sensitization stage, challenge stage, both stages and after the last challenge), and doses of nitroxide administration.
One day after the final challenge, respiratory activity and airway hyper-responsiveness (AHR) of experimental animals were evaluated. Whole body plethysmographs for enhanced pause (Penh) measurements are often used for assessment of AHR. However, critics have questioned the validity of Penh measurements, which supposedly measure airway obstruction of live non-sedated mice, stating that it is likely to measure the distress of the animal rather than actual obstruction. […] In brief, mice were sedated with an intraperitoneal (IP) injection of xylazine hydrochloride and anaesthetized with IP injection of pentobarbital. Subsequently, the animals were tracheostomized using an 18 gauge cannula, ventilated with a FlexiVent™ apparatus (SCIREQ), and muscle paralysis was induced with pancuronium bromide. The mice were ventilated in a quasi-sinusoidal fashion with the following settings: a tidal volume of 10 ml/kg, maximum inflation pressure of […] (30 cm H2O), a positive end expiratory pressure (PEEP) of 3 millibar and a frequency of 150 per minute. Following an equilibration period of 3 minutes of tidal ventilation, two lung inflations to a transrespiratory pressure of 2.5 millibar were performed and baseline measurements were taken. Airway hyper-responsiveness (AHR) was determined by aerosolizing increasing concentrations of methacholine. After baseline determination of airway resistance, mice were challenged with 0 to 64 mg/mL methacholine nebulized directly into the ventilatory circuit using an AeroNeb™ Lab nebulizer system (SCIREQ). Two models of respiratory mechanics were used to assess lung resistance: a linear 1st-order single compartment model and a constant-phase model. All data points were collected with FlexiVent™ software (SCIREQ). […]

[2] = Nitroxide concentration measurement by EPR in mouse blood and tissue; assay type: in vivo; details: mice
Experimental: Electron paramagnetic resonance (EPR) spectroscopy was used to determine residual levels of nitroxide in mouse tissue. Blood samples or tissue samples were diluted with 0.5 ml phosphate buffer (40 mM, pH 7.4) or water, inserted into a flexible capillary placed in a quartz tube installed within the EPR spectrometer cavity and assayed for residual nitroxide. A similar procedure was used to determine the residual nitroxide in tissue homogenates of various organs, which were corrected for blood contamination spectrophotometrically by following the absorption of oxyhemoglobin at 400-600 nm. Measured EPR signals were compared to those of a nitroxide standard solution.
In order to determine total hydroxylamine and nitroxide concentrations, 2 mM K3Fe(CN)6 was added to samples in order to oxidize hydroxylamines to the respective nitroxide, and the nitroxide level was determined by EPR spectroscopy as described hereinabove.
(§4) Control and experimental groups contained 10 mice each. The effects of the nitroxides were investigated by feeding the mice ad libitum a diet of nitroxide-containing chow (1 weight percent) during both ovalbumin (OVA)-induced sensitization and challenging periods (days −2-19), during the sensitization period (days −2-11) or challenge period (days 13-19). Nitroxide-containing chow were prepared by dissolving 500 grams chow in a minimum volume of water containing 5 grams nitroxide and 5 grams commercial chicken soup powder, preparing the chow and drying it at 37° C. (animals were reluctant to eat nitroxide-containing chow until chicken soup powder was added).
(§5) 3-CP was also administered using 3 daily intraperitoneal (IP) injections (200 μl, 0.15 M, ˜300 mg/kg) 0.5 hour prior to the challenge with OVA aerosol, or by nasal instillation (50 μl, 0.3 M, ˜150 mg/kg) twice a day 0.5 hour prior to the challenge with OVA aerosol and 6 hours later without exceeding its maximally tolerated dose, which has been previously established to be 300-500 mg/kg. Both 3-CP and TPL were non-toxic when administered orally or via IP injection to untreated OVA-challenged mice for 22 days.

[3] = tested on: ovalbumin-induced murine model of asthma; assay: Inflammatory cell counts in BAL fluid in OVA asthma model; assay type: in vivo, BALB/c mice
Experimental: as §1, §2, §3
(§6) Bronchoalveolar lavage (BAL) fluid (also referred to herein as “BALf”) and bronchial submucosal inflammation are characteristic features of asthma. Mice were euthanized with an overdose of 50 mg/kg pentobarbital and ice-cold phosphate buffer saline (PBS) (0.6 ml) was instilled into the lungs. BAL fluid was obtained by three aspirations via tracheal cannulation, centrifuged, and the supernatant collected and stored at −70° C. Cell pellets were re-suspended in PBS and 100 μl aliquots placed onto slides and centrifuged (200 g, 4° C., 10 minutes) in a cytospin machine. Induction of oxidative stress was evaluated using a 2′,7′-dichlorofluorescein fluorescence assay, and total IgE, IgG2a, panel of cytokines, transforming growth factors, collagen, protein nitration and lipid peroxidation were measured using commercial kits according to the manufacturer's recommendations. A Sircol™ collagen assay kit was obtained from Biocolor Life Sciences Assays, a protein nitration assay kit was obtained from Abcam, and other assay kits were obtained from PeproTech Asia.
as §4
as §5, with “days. […]” for “days.”

[4] = Toxicity / maximally tolerated dose in mice; assay type: in vivo; details: administered orally or via IP injection to untreated OVA-challenged mice for 22 days
Experimental: as §5

[5] = Nitroxide concentration measurement by EPR in mouse blood and tissue; assay type: in vivo; details: mice fed chow with 0.7 weight percent 3-CPT, FIG. 12
Water-solubility = details: compared with 3-CP, data not shown
IL-13 = IL-13 level in OVA asthma model; assay type: in vivo, BALB/c mice; details: OVA IP-Dex: dexamethasone intraperitoneal (1 mg/kg); lung tissue (table title)
Experimental: as §1, §2, §6
The efficacy of oral administration of 3-CP (1 weight percent in chow) during the sensitization period and/or challenge period was then compared to IP injection (˜300 mg/kg, 0.5 hour before the OVA challenge) or intranasal instillation (˜150 mg/kg, 0.5 hour before the OVA and 6 hours later) of 3-CP, as well as to dexamethasone treatment (1 mg/kg, 3 daily IP injections, 0.5 hour prior to the challenge with OVA aerosol).
In order to assess the effect of 3-CP on inflammatory signaling pathways, […] to procedures described hereinabove, upon oral, intranasal or IP administration of 3-CP.

CC1(C)CC(O)CC(C)(C)N1[O] [TPL, 4-Hydroxy-2,2,6,6-tetramethyl-piperidin-1-oxyl, reference compound]
effect on methacholine-induced increase in lung resistance ([1]; 1 weight percent in chow, FIG. 3): suppressed methacholine-induced increase in lung resistance
residual concentration of the respective hydroxylamine compared with the nitroxide ([2]; data not shown): higher than those of the therapeutically active nitroxide free radical
residual concentration of nitroxide in blood ([2]; oral administration (1 weight percent nitroxide in chow), FIG. 1): detectable levels
effect on OVA-induced increase in total inflammatory cell and eosinophil counts in BAL fluid ([3]; oral, 1 weight percent in chow, FIG. 4): attenuated the increase in total inflammatory cell counts and eosinophil counts
toxicity [4]: non-toxic

CC1(C)C=C(C(N)=O)C(C)(C)N1[O] [3-CPT, 3-carbamoyl-2,2,5,5-tetramethyl-3-pyrrolin-1-oxyl]
effect on methacholine-induced lung resistance ([1]; 0.7 weight percent 3-CPT in chow, FIG. 14): reduced methacholine-induced lung resistance, albeit to a considerably lesser degree than 3-CP
inhibiting increases in inflammatory cell levels (especially eosinophil levels) in asthmatic animals ([3]; 3-CPT oral (0.7 weight percent in chow) or intraperitoneal (300 mg/kg), FIG. 13): effective
effect on OVA-induced increase of total cell counts in BAL fluid ([3]; oral, 0.7 weight percent 3-CPT in chow, FIG. 13): effective in reversing OVA-induced increase of total cell counts
reduction to the respective hydroxylamine in the blood [5]: most of the 3-CPT in the blood was reduced to the respective hydroxylamine
water-solubility (Water-solubility): lower water-solubility than 3-CP

C[C@@H]1C[C@H]2[C@@H]3CCC4=CC(=O)C=C[C@]4(C)[C@@]3(F)[C@@H](O)C[C@]2(C)[C@@]1(O)C(=O)CO [dexamethasone, Dexamethasone, reference compound]
IL-13 level (IL-13): 1.80 ng/mg
